Assay [1] has as its target T1, YerA (Bsu06560) (Bacillus subtilis, UniProt O34909).
T1 construct: full-length (Met1-Arg580), pET-28a(+), E. coli BL21(DE3), N-terminal His-tag cleaved by PreScission protease; monomer; assayed as apo or metal-reconstituted form
Nature of the assay: thermal shift assay (SYPRO Orange). The conditions noted are these: apo-YerA (without metal reconstitution) 15 uM, 3 mM ligand. Format: binding.

For assay [2], the target named is T1, YerA (Bsu06560). The experiment in a line: LC-Q-TOF-MS detection of inosine product. Format: biochemical. The note with it: metal-reconstituted holoenzyme, 5 h, 37 °C, 5 mM ligand; apo form without reconstitution inactive.

T1 sequence (O34909 whole entry): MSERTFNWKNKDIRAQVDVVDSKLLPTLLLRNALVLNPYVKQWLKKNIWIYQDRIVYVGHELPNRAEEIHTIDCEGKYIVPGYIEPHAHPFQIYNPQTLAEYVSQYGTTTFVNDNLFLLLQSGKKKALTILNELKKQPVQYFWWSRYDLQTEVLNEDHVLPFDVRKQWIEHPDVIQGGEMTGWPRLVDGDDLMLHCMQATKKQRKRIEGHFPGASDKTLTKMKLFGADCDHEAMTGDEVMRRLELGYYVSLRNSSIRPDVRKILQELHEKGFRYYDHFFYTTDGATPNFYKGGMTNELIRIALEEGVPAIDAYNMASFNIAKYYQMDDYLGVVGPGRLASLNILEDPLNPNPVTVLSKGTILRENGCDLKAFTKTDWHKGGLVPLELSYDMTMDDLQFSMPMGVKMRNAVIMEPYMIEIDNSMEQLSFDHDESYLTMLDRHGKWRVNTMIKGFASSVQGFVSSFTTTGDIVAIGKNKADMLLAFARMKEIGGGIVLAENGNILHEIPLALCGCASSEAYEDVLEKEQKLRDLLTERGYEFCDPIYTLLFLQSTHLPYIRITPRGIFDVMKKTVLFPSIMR

As to `CNc1ncnc2c1ncn2[C@@H]1O[C@H](CO)[C@@H](O)[C@H]1O` [N^6-mAdo, N^6-methyladenosine], on YerA (Bsu06560) [1], the Tm shift is 3 °C. Besides, the “LC-Q-TOF-MS detection of inosine product” value at YerA (Bsu06560) [2] is “YerA deaminated the favored substrate N^6-mAdo to Ino after a 5-h reaction”.

These data come from article PMC12133300, “The C-terminal structure of the N^6-methyladenosine deaminase YerA and its role in deamination” (Biochemical Journal, 2025).
